Experimental data: patent US7498304B2, “Angiogenesis-modulating compositions and uses” (Curis, Inc., priority 2002, dated 2009)

Columns and labels:
[1] = test system: Hedgehog pathway signaling (Shh-induced Gli-transcription) in 10T1/2(s12) cells; test: Gli-Luc assay, OCT-SHH-induced luciferase reporter; format: cell-based, mouse; details: Gli-Luc response, OCT-SHH 0.3 μg/ml
Procedure: Compounds to be tested are dissolved in DMSO to a concentration of 10 mM, and stored at −20° C. To activate the Hedgehog pathway in the assay cells, an octylated (lipid-modified) form of the N-terminal fragment of the Sonic Hedgehog protein (OCT-SHH) is used. This N-terminal SHH fragment is produced bacterially.
Compounds may be tested in the “Gli-Luc” assay below, using the cell line 10T(s12), wherein the cells contain a Hedgehog-responsive reporter construct utilizing Luciferase as the reporter gene. In this way, Hedgehog pathway signaling activity can be measured via the Gli-Luc response.
10t1/2(s12) cells are plated in a 96-well micro-titer plate (MTP) at 20,000 cells/well in full medium [DMEM with 10% FBS]. Then plates are placed in the incubator for incubation overnight (O/N), at 37° C. and 5% CO2. After 24 h, the medium is replaced with Luciferase-assay medium (DMEM with 0.5% FBS). Compounds are thawed and diluted in assay medium at 3:1000 (about 300-fold) resulting in a starting concentration of about 30 μM.
Subsequently, 150 μl of each 30 μM sample is added to the first wells (in triplicate). The MTP samples are then diluted at 3-fold dilutions to a total of seven wells, ultimately resulting in a regiment of seven dilutions in triplicate, for each compound. Next, the protein ligand OCT-SHH is diluted in Luciferase-assay medium and added to each well at a final concentration of 0.3 μg/ml. Plates are then returned to the incubator for further incubation O/N, at 37° C. and 5% CO2. After about 24 h, plates are removed from the incubator and the medium is aspirated/discarded. Wells are washed once with assay buffer [PBS+1 mM Mg^2+ and 1 mM Ca^2+]. Then 50 μl of assay buffer is added to each well. The Luciferase assay reagent is prepared as described by the vendor (LucLite kit from Packard), and 50 μl is added to each well. Plates are incubated at room temperature (RT) for about 30 minutes after which the signals are read, again at RT, on a Topcount (Packard).
The discovery of compounds that inhibit Shh-induced Gli-transcription exemplifies the utility of the claims in this patent.

mouse cornea = test: mouse corneal pocket model of angiogenesis; format: in vivo
Procedure: To confirm the angiogenic activity of hedgehog in another well accepted model of angiogenesis, we tested the ability of hedgehog protein to induce neovascularization in the mouse corneal model pocket model of angiogenesis.
Animals were anesthetized by pentobarbital intraperitoneal injection (160 mg/kg). Corneal pockets were created in the eyes of each mouse and a 0.34×0.34 mm sucrose albumin sulfate (Bukh Meditec, Vaerlose, DK) pellet coated with hydron polymer type NCC (Interferon Sciences, New Brunswick, N.J.) containing 1 of the agents indicated below was implanted into the corneal pocket. […] mice were divided into 5 groups: control buffer alone; VEGF 300 ng/pellet; Myr-Shh vehicle alone; Myr-Shh 1.5 microg/pellet […]; Myr-Shh+VEGF (1.5 microg/pellet +300 ng/pellet, respectively). Pellets were positioned 1.0 mm from the corneal limbus, and erythromycin ophthalmic ointment (E. Fourera) was applied to each operated eye. The corneas of all mice were routinely examined by slit-lamp biomicroscopy on postoperative day 6 after pellet implantation.
On the same day vessel length and corneal circumferential neovascularity (in degrees) were measured. After completing these measurements, C57BL/6J mice received an intravenous injection of […] of BS-1 lectin FITC-conjugated (Vector Laboratories, Burlingame, Calif.). Thirty minutes later, the animals were sacrificed. The eyes were enucleated and fixed in 1% paraformaldehyde solution. After fixation, the corneas were placed on glass slides and examined by fluorescence microscopy.
To determine the mechanism by which Shh induces angiogenesis both Shh and VEGF-stimulated corneas (see Example 3) were excised and X-gal stained as described in Example 1 after fixation of the whole eye for 1 hour in 1% paraformaldehyde followed by enucleation and fixation of the corneal hemisphere in 1% paraformaldehyde for 30 minutes. […] Endothelial cell immunostaining was done with a rat monoclonal antibody against mouse CD-31 (Pharmigen, San Diego, Calif.) followed by a biotinylated goat anti-rat immunoglobulin secondary antibody. Smooth muscle cells and pericytes were identified with a mouse monoclonal antibody against SM a-actin conjugated with alkaline-phosphatase (Sigma, St. Louis, Mo.) and fibroblasts were identified using an anti-vimentin antibody (Sigma, St. Louis, Mo.).
We then immunostained the Shh-induced corneas with a rabbit polyclonal anti-VEGF antibody (Santa Cruz Biotechnology, Santa Cruz, Calif.) with a biotinylated goat anti-rabbit immunoglobulin as secondary antibody.

[2] = pellet: Myr-Shh 1.5 microg or VEGF 300 ng

Row | Compound | IC50 [1] | other results
1 | CC(c1nc2ccccc2c(=O)n1-c1ccc(F)cc1)N(Cc1ccco1)C(=O)Nc1cccc(F)c1 (stereo not drawn) [Compound 31] | < 10 µM | 
2 | CCCCc1ccc(C(=O)N(Cc2ccccc2)C(CC)c2nc3ccccc3c(=O)n2-c2ccc(C)cc2)cc1 (stereo not drawn) [Compound 40] | < 10 µM | 
3 | CCCCCCCCC(=O)N(CCCCC)C(C)c1nc2ccccc2c(=O)n1-c1ccccc1 (stereo not drawn) [Compound 41] | < 10 µM | 
4 | CC(c1nc2ccccc2c(=O)n1-c1ccc(F)cc1)N1CCN(C(=O)Nc2ccc(Cl)c(Cl)c2)CC1 (stereo not drawn) [Compound 43] | < 10 µM | 
5 | CCC(c1nc2ccccc2c(=O)[nH]1)N1CCN(C(=O)Nc2ccc(Cl)c(Cl)c2)C(C)C1 (stereo not drawn) [Compound 45] | < 5 µM | 
6 | CCCN(CCC(=O)NC1CCCc2ccccc21)C(=O)c1cc(OC)cc(OC)c1 (stereo not drawn) [Compound 47] | < 5 µM | 
7 | CC(c1nc2ccccc2c(=O)n1-c1ccc(F)cc1)N(C)C(=O)Nc1cccc(C#N)c1 (stereo not drawn) [Compound 51] | < 5 µM | 
8 | CC(c1nc2ccccc2c(=O)n1-c1ccc(F)cc1)N(C)C(=O)Nc1ccc(C(F)(F)F)cc1 (stereo not drawn) [Compound 54] | < 5 µM | 
9 | CC(c1nc2ccccc2c(=O)n1-c1ccc(F)cc1)N(C)C(=O)Nc1cccc(F)c1 (stereo not drawn) [Compound 55] | < 5 µM | 
10 | CC(c1nc2ccccc2c(=O)n1-c1ccc(F)cc1)N(C)C(=O)Nc1ccc(-c2ccccc2)cc1 (stereo not drawn) [Compound 56] | < 10 µM | 
11 | CC(C)c1cccc(NC(=O)N(C)C(C)c2nc3ccccc3c(=O)n2-c2ccc(F)cc2)c1 (stereo not drawn) [Compound 57] | < 10 µM | 
12 | CC(c1nc2ccccc2c(=O)n1-c1ccc(F)cc1)N(C)C(=O)Nc1cc(Cl)nc(Cl)c1 (stereo not drawn) [Compound 58] | < 5 µM | 
13 | Cc1c(NC(=O)N(C)C(C)c2nc3ccccc3c(=O)n2-c2ccc(F)cc2)cccc1[N+](=O)[O-] (stereo not drawn) [Compound 59] | < 5 µM | 
14 | CC(c1nc2ccccc2c(=O)n1-c1ccc(F)cc1)N(C)C(=O)Nc1ccc(SC(F)(F)F)cc1 (stereo not drawn) [Compound 60] | < 5 µM | 
15 | CC(c1nc2ccccc2c(=O)n1-c1ccc(F)cc1)N(C)C(=O)Nc1ccc([N+](=O)[O-])c(Cl)c1 (stereo not drawn) [Compound 62] | < 1 µM | 
16 | CCOC(=O)c1ccccc1NC(=O)N(C)C(C)c1nc2ccccc2c(=O)n1-c1ccc(F)cc1 (stereo not drawn) [Compound 63] | < 10 µM | 
17 | CC(c1nc2ccccc2c(=O)n1-c1ccc(F)cc1)N(C)C(=O)Nc1ccc([N+](=O)[O-])cc1Cl (stereo not drawn) [Compound 64] | < 10 µM | 
18 | CCOOC(=O)c1cccc(NC(=O)N(C)C(C)c2nc3ccccc3c(=O)n2-c2ccc(F)cc2)c1 (stereo not drawn) [Compound 65] | < 10 µM | 
19 | CC(c1nc2ccccc2c(=O)n1-c1ccc(F)cc1)N(C)C(=O)Nc1ccc(Cl)cc1[N+](=O)[O-] (stereo not drawn) [Compound 66] | < 10 µM | 
20 | Cc1c(NC(=O)NCc2nc3ccccc3c(=O)n2-c2ccc(F)cc2)cccc1SC(F)(F)F [Compound 67] | < 5 µM | 
21 | COc1cccc(NC(=O)NCc2nc3ccccc3c(=O)n2-c2ccc(F)cc2)c1C [Compound 71] | < 10 µM | 
22 | CC(NC(=O)Nc1cccc(C(F)(F)F)c1)c1nc2ccccc2c(=O)n1-c1ccc(F)cc1 (stereo not drawn) [Compound 73] | < 5 µM | 
23 | O=C(NCCCc1nc2ccccc2c(=O)n1-c1ccc(F)cc1)Nc1cccc(C(F)(F)F)c1 [Compound 74] | < 5 µM | 
24 | O=C(Nc1cccc(C(F)(F)F)c1)NC(c1nc2ccccc2c(=O)n1-c1ccc(F)cc1)C1CC1 (stereo not drawn) [Compound 75] | < 5 µM | 
25 | VEGF [reference compound] |  | X-gal staining (Ptc 1 expression) of corneas (mouse cornea; Ptc1-lacZ corneas): did not stain with X-gal; mean number of vascular lumens per cross section (mouse cornea; compared with Shh): higher; maximum vessel lengths (mouse cornea; [2]): 700±70 um; vessel diameters (mean) (mouse cornea; [2]): 8±3 um; neovascular growth (mouse cornea; pellet: Myr-Shh 1.5 microg or VEGF 300 ng, day 6): significant neovascular growth

More lines, main results first:

Row | IC50 [1] | Compound | other results
26 | < 0.1 µM | O=C(NCc1nc2ccccc2c(=O)n1-c1ccc(F)cc1)Nc1ccc(Cl)c(C(F)(F)F)c1 [Compound 5] | 
27 | < 0.5 µM | O=C(NCc1nc2ccccc2c(=O)n1-c1ccc(F)cc1)Nc1cc(Cl)nc(Cl)c1 [Compound 6] | 
28 | < 5 µM | CC(c1nc2ccccc2c(=O)n1-c1ccc(F)cc1)N(C)C(=O)Nc1cccc(C(F)(F)F)c1 (stereo not drawn) [Compound 11] | 
29 | < 5 µM | CC(c1nc2ccccc2c(=O)n1-c1ccc(F)cc1)N(C)C(=O)Nc1ccc([N+](=O)[O-])c(C(F)(F)F)c1 (stereo not drawn) [Compound 32] | 
30 | < 5 µM | CCCN(C(=O)Nc1cccc(Cl)c1)C(C)c1nc2ccccc2c(=O)n1-c1ccc(F)cc1 (stereo not drawn) [Compound 34] | 
31 | < 5 µM | CCCN(C(=O)Nc1cccc(C(F)(F)F)c1)C(C)c1nc2ccccc2c(=O)n1-c1ccc(F)cc1 (stereo not drawn) [Compound 36] | 
32 | < 5 µM | CCCN(C(=O)Nc1cccc(OC)c1)C(C)c1nc2ccccc2c(=O)n1-c1ccc(F)cc1 (stereo not drawn) [Compound 38] | 
33 | < 5 µM | CCC(c1nc2ccccc2c(=O)n1-c1ccc(C)cc1)N(CCc1ccccc1)C(=O)CCCCF (stereo not drawn) [Compound 39] | 
34 | < 5 µM | CCC(=O)N1CCN(C(CC)c2nc3ccccc3c(=O)n2-c2ccc(C)cc2)C(C)C1 (stereo not drawn) [Compound 42] | 
35 | < 1 µM | O=C(NCc1nc2ccccc2c(=O)n1-c1ccc(F)cc1)Nc1cccc(C(F)(F)F)c1 [Compound 44] | 
36 | < 0.5 µM | CCC(c1nc2ccccc2c(=O)[nH]1)N1CCN(C(=O)c2ccc(-c3ccccc3)cc2)C(C)C1 (stereo not drawn) [Compound 46] | 
37 | < 0.5 µM | CCC(C)N(CCC(=O)NC1CCCc2ccccc21)C(=O)c1cccc2ccccc12 (stereo not drawn) [Compound 48] | 
38 | < 1 µM | CCC(C)N(CCC(=O)NC1CCCc2ccccc21)C(=O)COc1ccc(Cl)cc1 (stereo not drawn) [Compound 49] | 
39 | < 1 µM | O=C(Cc1cccc(C(F)(F)F)c1)NCCc1nc2ccccc2c(=O)n1-c1ccc(F)cc1 [Compound 50] | 
40 | < 1 µM | CC(c1nc2ccccc2c(=O)n1-c1ccc(F)cc1)N(C)C(=O)Nc1cccc(SC(F)(F)F)c1 (stereo not drawn) [Compound 52] | 
41 | < 1 µM | CC(c1nc2ccccc2c(=O)n1-c1ccc(F)cc1)N(C)C(=O)Nc1ccc(Cl)c(Cl)c1 (stereo not drawn) [Compound 53] | 
42 | < 1 µM | CC(c1nc2ccccc2c(=O)n1-c1ccc(F)cc1)N(C)C(=O)Nc1ccc(Cl)c(C(F)(F)F)c1 (stereo not drawn) [Compound 61] | 
43 | < 1 µM | O=C(NCc1nc2ccccc2c(=O)n1-c1ccc(F)cc1)Nc1ccc(Cl)c(Cl)c1 [Compound 68] | 
44 | < 0.5 µM | O=C(NCc1nc2ccccc2c(=O)n1-c1ccc(F)cc1)Nc1ccc(Cl)c([N+](=O)[O-])c1 [Compound 69] | 
